How the values were obtained:
WT rhodopsin = assay: Immunoblot of rhodopsin, MTX plus BafA1 or MG-132, NIH3T3 (RHO^WT/GFP) cells; assay type: cell-based
Method: Cells were seeded in 6-well plates at a density of 5×10^5 cells/well and cultured at 37° C. with 5% CO2 for 17 h. The medium was replaced with a fresh medium containing a corresponding concentration of compounds. After treatment for 24 h, cells collected and lysed in 150 μL PBS containing 0.1% SDS and complete protease inhibitor cocktail with 12 s of sonication on ice. Retina samples were lysed in 300 μL per retina of PBS containing 0.1% SDS and complete protease inhibitor cocktail under 24 s of sonication on ice. Protein concentrations were determined by measurements of OD280 nm using a Nanodrop spectrometer. To immunoblot rhodopsin, one hundred μg of total protein for NIH3T3 (RHO^P23H/GFP) cells, or twenty μg of total protein for NIH3T3 (RHO^WT/GFP) cells was loaded per well onto an SDS-PAGE gel. To detect other proteins, fifty μg of total protein was loaded per well. After separation by electrophoresis in 10% and 16% SDS-PAGE gels, proteins were transferred to a nitrocellulose membrane using a wet membrane electrotransfer cassette followed by blocking with 5% bovine serum albumin in PBS containing 0.05% Tween 20 for 1 h. The membranes were incubated with primary antibodies at 4° C. overnight following with appropriate secondary antibodies for 1 h at room temperature. […]

Rho^P23H/+ mice = assay: Electroretinogram (ERG) after intravitreal injection; assay type: in vivo, mouse
Method: The C57BL/6J (Rho^+/+) mice and Rho^P23H/P23H mice were purchased from Jackson Laboratory (Stock No 017628) generated by Dr. Krzysztof Palczewski's lab. The Rho^P23H/P23H mice were crossed with wild-type C57BL/6J mice to produce P23H heterozygotes mice. Genotyping for all strains was conducted as guided using forward and reverse primers: 1) GGTAGCACTGTTGGGCATCT (SEQ ID NO: 5); and 2) GACCCCACAGAGACAAGCTC (SEQ ID NO: 6), respectively. The PCR products at 573 and 399 bp indicated the P23H knock-in mutant and WT allele of the RHO gene, respectively. Mice were bred and housed under standard 12-h light/12-h dark conditions in the University of Pittsburgh animal facility. All animal experiments were approved by the University of Pittsburgh Institutional Animal Care and Use Committee (IACUC) following the guide for the Animal Welfare Act and Regulations.
To determine the effect of compounds on retina in vivo, we administered compounds directly into the vitreous space. Briefly, mice were treated with 1% tropicamide eye drops (Akorn, Lake Forest, IL USA) to dilate the pupils and then they were anesthetized with an intraperitoneal injection of ketamine (Henry Schein, Dublin, OH USA) at 80 mg/kg body weight (bw) and xylazine (Bimeda, Le Sueur, MN USA) at 7 mg/kg bw. One drop of 0.5% tetracaine hydrochloride (TCI, Tokyo, Japan) was applied to mouse eyes as topical anesthetics before injection. Eyes were kept lubricated during the injections by a 0.3% hypromellose eye gel (Alcon, Fort Worth, TX USA). A heating pad was used for maintaining body temperature. Mice were positioned to expose the sclera of the eyes. A 30-gauge needle (Medline, Northfield, IL USA) was used to puncture a hole through sclera behind limbus at a 45° angle. A 33-gauge blunt-end needle (Hamilton, Reno, NV USA) was used to be inserted into the hole and a total of 0.5 μL of sterile PBS or MTX in PBS was slowly injected into the posterior chamber and the needle was kept in place for about 30 seconds before a slow removal of the needle. A small amount of Triantibiotic ointment (Medline, Northfield, IL USA) was applied on the injection site to prevent infection. A single IVI with 25 or 100 pmol of MTX was administered to one eye of each Rho^P23H/+ mice at postnatal day (PND) 15, and PBS was injected to the other eye as vehicle control. We also performed four weekly IVIs of MTX or PBS to the second group of Rho^P23H/+ mouse eyes at PND 15, 22, 29 and 36.
ERG was performed using the Celeris system (Diagnosys, Lowell, MA, USA), as described previously. Before each test, mice were kept in the dark overnight. Pupils were dilated with 1% tropicamide (Akorn, Lake Forest, IL, USA). Mice were anesthetized with an intraperitoneal injection of ketamine at 80 mg/kg bw and xylazine at 7 mg/kg bw. Eyes were lubricated by a 0.3% hypromellose eye gel (Alcon, Fort Worth, TX, USA). A heating pad was used to maintain body temperature at 37° C. Scotopic ERG responses of dark-adapted eyes to ten flashes from 0.01 cd·s/m^2 to 30 cd·s/m^2 were recorded and averaged from three sweeps per flash intensity with inter-sweep intervals of 10 to 30 s. After exposed to 10 cd/m^2 illumination for 5 min, the photopic ERG responses were recorded from the light-adapted eyes in respond to flashes from 0.01 cd·s/m^2 to 30 cd·s/m^2 in addition to a 10 cd/m^2 background light. P-values were calculated by a two-way ANOVA to determine the statistical significance between the response amplitudes in the MTX-treated and vehicle (PBS) group. Factor 1, treatment condition; and factor 2, flash intensity.

[1] = Estimated initial vitreous concentration after IVI; details: mouse vitreous volume about 5.3 μL
[2] = cited from earlier work
[3] = single IVI 25 pmol at PND 15, ERG at PND 32, vs PBS or non-treated
[4] = single IVI 100 pmol at PND 15, ERG at PND 32

SMILES: CN(Cc1cnc2nc(N)nc(N)c2n1)c1ccc(C(=O)N[C@@H](CCC(=O)O)C(=O)O)cc1 [CL-009, N-[4-[[(2,4-diamino-6-pteridinyl)methyl]methylamino]benzoyl]-L-glutamic acid]
- WT rhodopsin level under BafA1 and MTX co-treatment (immunoblot) (WT rhodopsin; 10 μM MTX + 100 nM BafA1, 24 h): accumulation of WT rhodopsin
- WT rhodopsin accumulation under MG-132 plus MTX (immunoblot) (WT rhodopsin; 10 μM MTX + 5 μM MG-132, 24 h): did not
- multi-flash scotopic and photopic b-waves (Rho^P23H/+ mice; four weekly IVIs from PND 15, ERG at PND 44, vs PBS): significantly increased
- photopic b-waves (Rho^P23H/+ mice; four weekly IVIs of 100 pmol, vs PBS, at higher flash intensities): higher
- multi-flash scotopic ERG a- and b-waves (Rho^P23H/+ mice; [3]): significantly higher
- photopic ERG responses (Rho^P23H/+ mice; [3]): higher
- multi-flash scotopic ERG a- and b-waves (Rho^P23H/+ mice; [4]): no effect
- photopic ERG responses (Rho^P23H/+ mice; [4]): did not show any effects
- ratio of scotopic and photopic b- to a-wave amplitudes (Rho^P23H/+ mice; single IVI 25 or 100 pmol): not affected
- vitreous concentration ([1]; 25 pmol IVI): about 4.7 μM
- initial vitreous concentration ([1]; 100 pmol IVI): 18.9 µM
- water solubility [2]: water-soluble

— patent publication US12678440B2, “Compositions and methods for treating misfolded protein ocular disorders” (CASE WESTERN RESERVE UNIVERSITY, priority 2020, dated 2026)
